From patent US5804577A, “Cephalosporin derivatives” (Hoffmann-La Roche Inc., priority 1995, dated 1998)
In brackets after ≈: the same amount, converted by molar mass. Structures can show the parent of a compound that is named as a salt. Where two headings read alike, the source gives them in different places.

How the values were obtained:
Test in all cases: MIC by agar dilution method in Mueller Hinton agar
Type in all cases: cell-based
S. marscescens 69438 = tested on: S. marscescens 69438
Description: (§1) In vitro activity was determined by minimum inhibitory concentration in a microorganism spectrum by the agar dilution method in Mueller Hinton agar.

Acinetobacter sp. 51-156 = settings: SP.51156
Description: as §1

S. agalactiae QK44 = settings: Streptococcus agalactiae
Description: as §1

P. aeruginosa 27853 = settings: Pseudomonas aeruginosa
Description: as §1

E. coli 25922 = settings: Escherichia coli, 25922
Description: as §1

E. cloacae 908SSi = settings: Enterobacter cloacae
Description: as §1

S. aureus 734 MRSA = settings: Staphylococcus aureus
Description: as §1

C. freundii 902 = settings: Citrobacter freundii
Description: as §1

E. cloacae 908R = settings: Enterobacter cloacae
Description: as §1

L. monocytogenes BK23 = settings: Listeria monocytogenes
Description: as §1

S. viridans group 016 = settings: Streptococcus viridans, GROUP016
Description: as §1

X. maltophilia 1AC739 = settings: Stenotrophomonas maltophilia
Description: as §1

K. pneumoniae 418 = settings: Klebsiella pneumoniae, 418
Description: as §1

C. freundii 43 = settings: Citrobacter freundii; C. freundii 43; read-out: MIC
Description: as §1

E. faecalis 6 = settings: Enterococcus faecalis
Description: as §1

P. vulgaris 1028 = settings: Proteus vulgaris
Description: as §1

S. aureus 6538 = settings: Staphylococcus aureus
Description: as §1

C. difficile ZH1 = settings: Clostridioides difficile; C. difficile ZH1; read-out: MIC
Description: as §1

B. fragilis ATCC25285 = settings: Bacteroides fragilis, ATCC25285
Description: as §1

M. catarrhalis RA21 = settings: Moraxella catarrhalis
Description: as §1

M. morganii 6H-137 = settings: Morganella morganii, 6H137
Description: as §1

P. mirabilis 2117 = settings: Proteus mirabilis; P. mirabilis 2117; read-out: MIC
Description: as §1

[1] = Acinetobacter sp. 51-156, read-out: MIC
[2] = X. maltophilia 1AC739, read-out: MIC
[3] = P. vulgaris 1028, read-out: MIC
[4] = P. aeruginosa 27853, read-out: MIC

Row | Compound | MIC (S. marscescens 69438) | MIC (Acinetobacter sp. 51-156; [1]) | MIC (S. agalactiae QK44) | MIC (P. aeruginosa 27853; 27853) | MIC (E. coli 25922) | MIC (E. cloacae 908SSi; 908SSI) | MIC (S. aureus 734 MRSA; MRSA) | MIC (C. freundii 902; 902) | MIC (E. cloacae 908R; E. cloacae 908R, read-out: MIC) | MIC (L. monocytogenes BK23; BK23) | MIC (S. viridans group 016) | MIC (X. maltophilia 1AC739; [2]) | MIC (K. pneumoniae 418) | MIC (C. freundii 43) | MIC (E. faecalis 6; 6) | MIC (P. vulgaris 1028; 1028) | MIC (S. aureus 6538; 6538) | MIC (Acinetobacter sp. 51-156; Acinetobacter) | MIC (X. maltophilia 1AC739; 1AC739) | MIC (M. catarrhalis RA21; RA21) | other results
1 | Nc1nc(/C(=N/O)C(=O)N[C@@H]2C(=O)N3C(C(=O)O)=C(/C=C4\CCN(c5ccc(O)c(F)c5)C4=O)CS[C@H]23)cs1 [C, (6R,7R)-7-[(Z)-2-(2-Amino-thiazol-4-yl)-2-(hydroxyimino-acetylamino]-3-[(E)-1-(3-fluoro-4-hydroxy-phenyl)-2-oxo-pyrrolidin-3-ylidenemethyl]-8-oxo-5-thia-1-azabicyclo[4.2.0]oct-2-ene-2-carboxylic acid trifluoroacetate] | 1 µg/mL | 32 µg/mL | 0.06 µg/mL | 4 µg/mL | 0.12 µg/mL | 0.5 µg/mL | 4 µg/mL | 0.12 µg/mL | 32 µg/mL | 1 µg/mL | 0.12 µg/mL | > 32 µg/mL | 0.12 µg/mL | 4 µg/mL | 1 µg/mL | 8 µg/mL | 0.5 µg/mL | – | – | – | –
2 | Nc1nc(/C(=N/O)C(=O)N[C@@H]2C(=O)N3C(C(=O)O)=C(/C=C4\CCN(Cc5cccc(O)c5)C4=O)CS[C@H]23)cs1 [E, (6R,7R)-7-[(Z)-2-(2-Amino-thiazol-4-yl)-2-(hydroxyimino-acetylamino]-3-[(E)-1-(3-hydroxybenzyl)-2-oxo-pyrrolidin-3-ylidenemethyl]-8-oxo-5-thia-1-azabicyclo[4.2.0]oct-2-ene-2-carboxylic acid trifluoroacetate] | 0.5 µg/mL | – | 0.12 µg/mL | 8 µg/mL | – | 0.5 µg/mL | – | 0.25 µg/mL | 8 µg/mL | 2 µg/mL | 0.5 µg/mL | – | 0.25 µg/mL | 4 µg/mL | 0.5 µg/mL | – | – | 32 µg/mL | > 32 µg/mL | 2 µg/mL | MIC (C. difficile ZH1): 4 µg/mL; MIC (S. aureus 734 MRSA; S. aureus 734 MRSA, read-out: MIC): 16 µg/mL; MIC (B. fragilis ATCC25285): 8 µg/mL; MIC (P. vulgaris 1028; [3]): 16 µg/mL; MIC (S. aureus 6538; S. aureus 6538, read-out: MIC): 0.5 µg/mL
3 | Nc1nc(/C(=N/O)C(=O)N[C@@H]2C(=O)N3C(C(=O)O)=C(/C=C4\CCN(c5nncs5)C4=O)CS[C@H]23)cs1 [F, (6R,7R)-7-[(Z)-2-(2-Amino-thiazol-4-yl)-2-hydroxyimino-acetylamino]-8-oxo-3-[(E)-2-oxo-1-(1,3,4-thiadiazol-2-yl)-pyrrolidin-3-ylidenemethyl]-5-thia-1-aza-bicyclo[4.2.0]oct-2-ene-2-carboxylic acid trifluoracetate (1:1)] | 32 µg/mL (≈ 58.3 µM) | – | 0.25 µg/mL (≈ 0.456 µM) | – | 0.12 µg/mL (≈ 0.219 µM) | 1 µg/mL (≈ 1.82 µM) | 16 µg/mL (≈ 29.2 µM) | 0.12 µg/mL (≈ 0.219 µM) | – | 4 µg/mL (≈ 7.29 µM) | 0.5 µg/mL (≈ 0.911 µM) | – | 0.25 µg/mL (≈ 0.456 µM) | 8 µg/mL (≈ 14.6 µM) | 1 µg/mL (≈ 1.82 µM) | > 32 µg/mL | 1 µg/mL (≈ 1.82 µM) | > 32 µg/mL | > 32 µg/mL | > 16 µg/mL | MIC (M. morganii 6H-137): 0.5 µg/mL (≈ 0.911 µM); MIC (P. aeruginosa 27853; [4]): > 32 µg/mL; MIC (E. cloacae 908R; 908R): > 32 µg/mL; MIC (P. mirabilis 2117): 0.25 µg/mL (≈ 0.456 µM)
4 | CO/N=C(\C(=O)N[C@@H]1C(=O)N2C(C(=O)O)=C(CSc3nc(=O)c(=O)[nH]n3C)CS[C@H]12)c1csc(N)n1 [II, reference compound] | – | 32 µg/mL (≈ 57.7 µM) | – | – | – | – | > 32 µg/mL | – | – | – | – | > 32 µg/mL | – | 32 µg/mL (≈ 57.7 µM) | – | – | 4 µg/mL (≈ 7.21 µM) | – | – | – | MIC (S. marscescens 69438; S. marscescens 69438, read-out: MIC): 0.25 µg/mL (≈ 0.451 µM); MIC (P. aeruginosa 27853; [4]): 16 µg/mL (≈ 28.9 µM); MIC (E. cloacae 908SSi; E. cloacae 908SSi, read-out: MIC): 0.25 µg/mL (≈ 0.451 µM); MIC (C. freundii 902; C. freundii 902, read-out: MIC): 0.25 µg/mL (≈ 0.451 µM); MIC (E. cloacae 908R; 908R): > 32 µg/mL; MIC (L. monocytogenes BK23; L. monocytogenes BK23, read-out: MIC): > 16 µg/mL; MIC (S. viridans group 016; S. viridans group 016, read-out: MIC): 0.25 µg/mL (≈ 0.451 µM); MIC (M. catarrhalis RA21; M. catarrhalis RA21, read-out: MIC): 1 µg/mL (≈ 1.8 µM); MIC (E. faecalis 6; E. faecalis 6, read-out: MIC): > 32 µg/mL; MIC (P. vulgaris 1028; [3]): 0.12 µg/mL (≈ 0.216 µM)
